# Laboratory results published in patent publication US11576913B2 (priority 2018, dated 2023).
# Key:
# [1] = system: healthy, non-dependent, recreational sedative users; assay: Human abuse potential study, adverse events and tolerability; type: in vivo; settings: N = 50
# Description: Adverse events were coded to MedDRA terms. Data for AEs were analyzed using the treatment-emergent signs and symptoms (TESS) philosophy. Treatment-emergent signs and symptoms are defined as AEs that: • Emerge during treatment, having been absent at pretreatment; or • Reemerge during treatment, having been present at pretreatment but stopped prior to treatment; or • Worsen in intensity during treatment relative to the pretreatment state, when the AE is continuous.
# Subjects were counted only once in the incidence count for a specific MedDRA Preferred Term, although a MedDRA Preferred Term might be reported more than once for a particular subject. Separate summaries will be provided for Treatment-emergent AEs (“TEAEs”) by maximum intensity (mild, moderate, severe) and relationship (yes, no) to study drug. A TEAE was considered related to study drug if the investigator reported the event to be “definitely, probably, possibly, or unlikely” related to treatment on the CRF.
# [2] = system: healthy, non-dependent, recreational sedative users; assay: Human abuse potential study, Drug Liking VAS; type: in vivo; settings: for Drug Liking VAS - EMAX LSMean: N = 50, 100 point bipolar scale; for Drug liking from placebo, Triazolam 1 mg compared with Triazolam 0.5 mg (words): 1 mg vs 0.5 mg
# Description: This study was designed as a randomized, single-dose, double-blinded, double dummy, crossover study. The study population was healthy, nondependent recreational polydrug users with a history of Central Nervous System (CNS) depressant use.
# Subjects were screened no more than 28 days before check-in of period 1. Study drug was administered in each period according to the study randomization schedule. During Qualification, there was a minimum 24 hour washout period between each study drug administration. During the Treatment phase, there was a minimum 48-hour washout period between each study drug administration. Subjects were confined to the unit the day prior to, and for at least approximately 24 hours following, study drug administration during each period. If subjects were discharged between treatment periods, subjects returned to the unit the day prior to dosing.
# The Qualification Phase was designed to ensure that polydrug abusing subjects with self-reported recreational CNS depressant/sedative drug experience were able to tolerate and discriminate between orally administered triazolam tablets and placebo as well as to report positive subjective effects of the drug in a controlled laboratory setting. This phase was also used to exclude “placebo responders”, i.e., subjects who report subjective effects of placebo. This phase also helped familiarize subjects with, and trained them in the use of, various scales and questionnaires that measure subjective effects.
# The comparators in an abuse potential study are typically controlled substances from the same pharmacologic class as the investigational drug. However, Compound (1C) is a novel drug class for which no controlled substances/drugs of abuse are available for comparison. […] There was no evidence of other effects of interest to abusers, such as perceptual disturbances or stimulation. […] Placebo control was used to establish the frequency and magnitude of changes in clinical endpoints that may occur in the absence of active treatment as well as to minimize subject and investigator bias.
# In all of the study phases, treatments were blinded to the greatest extent possible to reduce potential bias during data collection and evaluation of clinical endpoints. Because study subjects were recreational drug users and familiar with the effects of the drug substances being studied, the double-dummy technique was be used in the Treatment Phase to maintain blinding. Subjects received tablets orally in each treatment period. Placebo was matched in size and shape to each of the tablet types, and a method to blind subjects will be employed.
# For each phase, subjects received treatments according to the randomization schema. During the Treatment Phase, subjects were be randomized to 1 of sequences in a 6×6 Williams square crossover design.
# Compound (1C) was administered orally in an immediate release tablet comprising the pharmaceutically acceptable excipients croscarmellose sodium (FMC Health and Nutrition, Philadelphia, Pa.), hydroxypropylcellulose (Ashland Inc., Covington, Ky.), microcrystalline cellulose (Dupont, Chicago, Ill.), mannitol (SPI Pharma, Wilmington, Del.), magnesium stearate (PlusPharma Inc., Vista, Calif.), and sodium lauryl sulfate (BASF Corp, Upper St. Clair, Pa.). […] Placebo tablets matching the Compound (1C) tablets were orally administered in the same way. The placebo tablets comprised the above-described pharmaceutically acceptable excipients but with no Compound (1C). Triazolam was administered at a dose of 0.5 or 1 mg. Trial endpoints are provided below.
# Peak Maximum Effect (Emax) for Drug Liking (“at this moment”) visual analog scale (“VAS”), was measured by study participants providing a score on a 100 point bipolar scale with 100 as strong liking, 50 as the neutral point of neither liking nor disliking, and 0 as strong disliking. […]
# [3] = triazolam tablets administered orally; cited from earlier work
smiles,measurement,setting,value
"Cc1nnc2n1-c1ccc(Cl)cc1C(c1ccccc1Cl)=NC2 [Triazolam, triazolam, reference compound]",Amnesia,[1]; 0.5 mg,3 (6) n (%)
same,Ataxia,[1]; 0.5 mg,21 (42) n (%)
same,Diplopia,[1]; 0.5 mg,4 (8) n (%)
same,Dizziness,[1]; 0.5 mg,7 (14) n (%)
same,Euphoric mood,[1]; 0.5 mg,1 (2) n (%)
same,Headache,[1]; 0.5 mg,2 (4) n (%)
same,Hiccups,[1]; 0.5 mg,10 (20) n (%)
same,Nausea,[1]; 0.5 mg,0 n (%)
same,Somnolence,[1]; 0.5 mg,45 (90) n (%)
same,Vision blurred,[1]; 0.5 mg,3 (6) n (%)
same,Amnesia,[1]; 1 mg,12 (24) n (%)
same,Ataxia,[1]; 1 mg,28 (56) n (%)
same,Diplopia,[1]; 1 mg,5 (10) n (%)
same,Dizziness,[1]; 1 mg,6 (12) n (%)
same,Euphoric mood,[1]; 1 mg,2 (4) n (%)
same,Headache,[1]; 1 mg,0 n (%)
same,Hiccups,[1]; 1 mg,14 (28) n (%)
same,Nausea,[1]; 1 mg,1 (2) n (%)
same,Somnolence,[1]; 1 mg,49 (98) n (%)
same,Vision blurred,[1]; 1 mg,2 (4) n (%)
same,Drug Liking VAS - EMAX Diff from Placebo LSMean,[2]; 0.5 mg,20.4 points
same,Drug liking compared with placebo (words),[2]; 0.5 mg,significant
same,Drug Liking VAS - EMAX LSMean,[2]; 0.5 mg single oral dose,75.5
same,Drug liking compared with placebo (words),"[2]; 0.5 mg, listed as triazolam",significantly greater than placebo
same,Drug Liking VAS - EMAX Diff from Placebo LSMean,[2]; 1 mg,23.5 points
same,Drug liking compared with placebo (words),[2]; 1 mg,significant
same,Drug Liking VAS - EMAX LSMean,[2]; 1 mg single oral dose,78.6
same,"Drug liking from placebo, Triazolam 1 mg compared with Triazolam 0.5 mg (words)",[2],Triazolam 1 mg had greater drug liking from
same,"Drug liking from placebo, Triazolam 1 mg compared with Triazolam 0.5 mg (words)",[2]; listed as triazolam,greater drug liking from placebo than triazolam 0.5 mg
same,Drug liking compared with placebo (words),"[2]; 1 mg, listed as triazolam",significantly greater than placebo
same,Time to maximum concentration,[3],~1.3 h
